We go through one molecule from US8741964B2, “Uses of nonenal” (Industry-Academic Cooperation Foundation, Yonsei University, priority 2011, dated 2014).

The structures appear in SMILES notation.

Series [1] has as its system TNF-α. Nature of the series: RT-PCR analysis of visceral fat tissues: TNF-α gene expression. The conditions noted are these: feeding nonenal in HFD vs HFD. The series is classed as in vivo, mice. An excerpt: (§1) The obesity-inducing control diet used in the test was high-fat diet (HFD: 40% fat calorie, 17 g lard+3% corn oil/100 g diet). Diets supplemented with nonenal (nonenal-supplemented high fat diet, NED) had the same composition as HFD, except that nonenal was included at 0.2% (see Table 1). The normal diet group (Chow) was fed with commercially available rodent chow. Nonenal was purchased from Sigma-Aldrich.
(§2) 5-week-old male C57BL/6J mice (Orient, Korea) were accustomed to the laboratory environment for 1 week while feeding solid feed. Then, they were randomly divided into normal diet, high-fat diet and test groups and bred for a total of 10 weeks. The diet was given between 10 and 11 a.m. every day together with water. Food intake was measured every day and body weight was measured once a week. In order to avoid transient body weight increase after feed intake, body weight was measured 2 hours after removing the feed. […]
(§3) After adding 1 mL of Trizol agent per 0.1 g of visceral fat tissues, the mixture was homogenized and centrifuged at 12,000×g for 10 min at 4° C. […] The RNA sample concentration was measured at a wavelength of 260 nm and 280 nm using a UV/VIS spectrophotometer (Beckman coulter, DU730) and the integrity of RNA sample was verified by agarose gel electrophoresis. […]

Series [2] concerns PPARγ2. The series can be described thus: RT-PCR analysis of visceral fat tissues: PPARγ2 gene expression. The class given is in vivo, mice. The conditions noted are these: nonenal supplemented to the HFD vs HFD; to levels similar for the Chow group.
Description: as §1, §2, §3

Series [3] has as its system rats. The settings on record: cited from earlier work.
The subject of series [4] is C/EBPα. Nature of the series: RT-PCR analysis of visceral fat tissues: C/EBPα gene expression. The series is classed as in vivo, mice. The settings on record: nonenal supplemented to the HFD vs HFD; to levels similar for the Chow group.
Description: as §1, §2, §3

Series [5] deals with C57BL/6J mice. Nature of the series: Body weight, food intake and visceral fat-pad weights of mice fed test diets for 10 weeks. The series is classed as in vivo.
Description: as §1
(§4) 5-week-old male C57BL/6J mice (Orient, Korea) were accustomed to the laboratory environment for 1 week while feeding solid feed. Then, they were randomly divided into normal diet, high-fat diet and test groups and bred for a total of 10 weeks. The diet was given between 10 and 11 a.m. every day together with water. Food intake was measured every day and body weight was measured once a week. In order to avoid transient body weight increase after feed intake, body weight was measured 2 hours after removing the feed. After fasting the test animal for at least 12 hours and anesthetizing with diethyl ether, blood, liver and visceral fat (epididymal fat, perirenal fat, mesenteric fat and retroperitoneal fat) were taken and weighed after washing with 0.1 M PBS (pH 7.4). Blood taken from the abdominal aorta was centrifuged at 1000×g for 15 minutes for the separation of plasma.

Series [6] deals with C57BL/6J mice. Nature of the series: Analysis of lipid level in liver tissues of mice fed test diets. The series is classed as in vivo. The settings on record: 0.2% nonenal in high-fat diet, 10 weeks, as compared to HFD.
Description: as §1, §4
Lipids were extracted from the liver tissue according to Folch et al.'s method Folch J et al., J Biol. Chem. 226: 497-509 (1957)). After adding 1 mL of distilled water to 0.25 g of liver tissue, the liver tissue was homogenized using a Polytron homogenizer (IKA-Werke GmbH & Co., Ultra-Turrax, Staufen, Germany). After adding 5 mL of chloroform:methanol solution (2:1, v/v) to the homogenate and mixing well, the mixture was centrifuged at 1000×g for 10 minutes. After adding 2 mL of chloroform:methanol solution (2:1, v/v) again to the supernatant, the same procedure was repeated to completely separate the lipid components of the liver. […] The dried lipids were dissolved in 1 mL of methanol and then analyzed. […]

Series [7] deals with C57BL/6J mice. The series can be described thus: Biochemical analysis of blood (plasma lipids, glucose, ALT, AST) of mice fed test diets. The conditions noted are these: 10 weeks. The series is classed as in vivo.
Description: as §1, §4
After 10 weeks of breeding, total cholesterol, triglyceride and glucose levels in the plasma and lipid levels in the liver tissue were measured as follows. Total cholesterol, triglyceride, free fatty acid and glucose levels in the plasma were measured twice for each using a commercially available kit (Bio Clinical System). The activity of ALT (alanine aminotransferase) and AST (aspartate aminotransferase) used as liver function indicator were measured twice for each using a commercially available kit (Bio Clinical System, Korea).

The test system of series [8] is IL-6. The series can be described thus: RT-PCR analysis of visceral fat tissues: IL-6 gene expression. The class given is in vivo, mice. The conditions noted are these: feeding nonenal in HFD vs HFD.
Description: as §1, §2, §3

For series [9], the system named is microbial growth. The settings on record: cited from earlier work.
The test system of series [10] is aP2. Nature of the series: RT-PCR analysis of visceral fat tissues: aP2 gene expression. The settings on record: nonenal supplemented to the HFD vs HFD; to levels similar for the Chow group. The series is classed as in vivo, mice.
Description: as §1, §2, §3

[11] abbreviates: 0.2% nonenal in high-fat diet, as compared to HFD.
The mark [12] stands for this setting: 0.2% nonenal in high-fat diet, as compared to HFD group.

Consider `CCCCCC/C=C/C=O` [nonenal, trans-2-nonenal], for which the “HFD-induced elevation in the expression of TNF-α in visceral fat tissues” value in series [1] was “significantly reversed”. In addition, in series [2], the “expression of PPARγ2 gene (mRNA) in visceral fat tissues” value is “significantly decreased”. The LD50 entry in series [3] was “more than 5,000 mg/kg”. Also, in series [4], the “expression of C/EBPα gene (mRNA) in visceral fat tissues” value is listed as “significantly decreased”. In addition, the “decrease of body weight gain” value in series [5] (0.2% nonenal in high-fat diet (NED), as compared to HFD) was found to be 49%. In [5] (setting [11]), the “weight of epididymal fat-pad” value is “significantly reduced”, the “weight of mesenteric fat-pad” value is listed as “significantly reduced”, the “weight of perirenal fat-pad” value is recorded as “significantly reduced” and the “weight of retroperitoneal fat-pad” value was “significantly reduced”. In addition, the “reduction of total visceral fat weight” value in series [5] (NED group vs HFD group) was found to be 59%. Moreover, in series [6], the “decrease of cholesterol level in liver tissue” value was found to be 75%, the “decrease of free fatty acid level in liver tissue” value is 74% and the “decrease of triglyceride level in liver tissue” value turned out to be 78%. In addition, the “reduction of fasting blood sugar level” value in series [7] (setting [11]) stood at 31%. For the same molecule, in [7] (setting [12]), the “lowering of plasma LDL+VLDL cholesterol level” value came out at 20%, the “lowering of plasma free fatty acid level” value is reported as 41%, the “lowering of plasma total cholesterol level” value was found to be 19% and the “lowering of plasma triglyceride level” value came to 37%. Moreover, in series [7] (NED group vs HFD group), the “decrease of plasma activity of ALT” value was 28% and the “decrease of plasma activity of AST” value was determined as 31%. Besides, the “HFD-induced elevation in the expression of IL-6 in visceral fat tissues” value in [8] was “significantly reversed”. Also, in series [9], the “microbial growth inhibitory effects” value is “microbial growth inhibitory effects”. The “expression of aP2 gene (mRNA) in visceral fat tissues” value in [10] was “significantly decreased”.
